Drawing on ChEMBL document CHEMBL1159140, “DuP 747: sar study” (1992), this text covers ED50 for nine molecules.

The species named for experiment [1] is Mus musculus. Put plainly: animal or person. The format is functional. The note with it: po.
The species entered for experiment [2] is Mus musculus. Put plainly: animal or person. In kind it is functional. The following applies: sc.

Usually ED50 stands for the dose at which the effect has come halfway, by size or by number of responders. On to `COc1ccc2c(c1)CC[C@H](N1C=CN(C)CC1)[C@H]2N(C)C(C)=O.Cl`, for which the ED50 in experiment [1] and in experiment [2] was > 81 mg/kg in each case.
Turning to `COc1cccc2c1CC[C@H](N1CCCC1)[C@H]2N(C)C(=O)CCc1ccc(Cl)c(Cl)c1.Cl`, the ED50 stood at 81 mg/kg in experiment [1] and 38 mg/kg in experiment [2].
Take `CN(C(=O)Cc1ccc(Cl)c(Cl)c1)[C@H]1CCc2ccccc2[C@@H]1N1CCCC1.Cl`: the ED50 in experiment [1] is > 81 mg/kg; in experiment [2], 0.16 mg/kg.
In the case of `CN(C(=O)Cc1ccc(Cl)c(Cl)c1)[C@H]1c2cccc(OC(=O)c3ccccc3)c2CC[C@@H]1N1CCCC1.Cl`, the ED50 was 6.4 mg/kg in experiment [1] and 0.71 mg/kg in experiment [2].
On to `CN(C(=O)Cc1ccc(Cl)c(Cl)c1)[C@H]1c2ccccc2-c2ccccc2[C@@H]1N1CCCC1.Cl`, for which the ED50 in experiment [1] and in experiment [2] was > 81 mg/kg throughout.
Take `COc1cccc2c1CC[C@H](N1CCCC1)[C@H]2N(C)C(=O)CSc1ccc(Cl)c(Cl)c1.Cl`: the values for the ED50 in experiment [1] and in experiment [2] were > 81 mg/kg and 47 mg/kg, respectively.
As to `COc1ccc2c(c1)CC[C@H](N1CCCC1)[C@H]2N(C)C=O.Cl`, the 50% effective dose (ED50) in experiment [1] was found to be 81 mg/kg; in experiment [2], 47 mg/kg.
On the same counts, the results for `COc1ccc2c(c1)CC[C@H](N1CC=CC1)[C@H]2N(C)C(C)=O.Cl` are 3.4 mg/kg and 0.24 mg/kg.
With `COc1ccc2c(c1)CC[C@H](N1CCCCC1)[C@H]2N(C)C(C)=O.Cl`, the ED50 in experiment [1] and in experiment [2] was > 81 mg/kg in each case.
